Assays:
[1] = tested on: Arabidopsis plants, construct RHOMA_PPO_wt_tpAMATU_PPO2 (SEQ ID NO 127); test: Tolerance of transgenic T1 Arabidopsis plants to herbicides, greenhouse (Tolerance Factor); type: in vivo, Arabidopsis thaliana
[2] = tested on: Arabidopsis plants, construct hemG_tpsAMATU_PPO2 (SEQ ID NO 119); test: as above; type: in vivo, Arabidopsis thaliana
[3] = tested on: Arabidopsis plants, construct hemF_tplAMATU_PPO2 (SEQ ID NO 115); test: as above; type: in vivo, Arabidopsis thaliana
[4] = tested on: Arabidopsis plants, construct hemG_tpFNR (SEQ ID NO 117); test: as above; type: in vivo, Arabidopsis thaliana
[5] = tested on: transgenic Arabidopsis thaliana, transgene SEQ ID NO 121; test: Herbicide injury evaluation of Arabidopsis plants, greenhouse; type: in vivo; conditions: Table 3, scale 0-100
[6] = tested on: Arabidopsis plants, construct hemG_tplAMATU_PPO2 (SEQ ID NO 118); test: Tolerance of transgenic T1 Arabidopsis plants to herbicides, greenhouse (Tolerance Factor); type: in vivo, Arabidopsis thaliana
[7] = tested on: transgenic Arabidopsis thaliana, transgene SEQ ID NO 128; test: Herbicide injury evaluation of Arabidopsis plants, greenhouse; type: in vivo; conditions: Table 3, scale 0-100
[8] = tested on: Arabidopsis plants, construct hemF_tpFNR (SEQ ID NO 114); test: Tolerance of transgenic T1 Arabidopsis plants to herbicides, greenhouse (Tolerance Factor); type: in vivo, Arabidopsis thaliana
[9] = tested on: Arabidopsis plants, construct CHLSP_PPO_wt_tpFNR (SEQ ID NO 128); test: as above; type: in vivo, Arabidopsis thaliana
[10] = tested on: transgenic Arabidopsis thaliana, transgene SEQ ID NO 119; test: Herbicide injury evaluation of Arabidopsis plants, greenhouse; type: in vivo; conditions: Table 3, scale 0-100
[11] = tested on: transgenic Arabidopsis thaliana, transgene SEQ ID NO 117; test: as above; type: in vivo; conditions: Table 3, scale 0-100
[12] = tested on: Arabidopsis plants, construct OPITE_PPO_wt_tpFNR (SEQ ID NO 121); test: Tolerance of transgenic T1 Arabidopsis plants to herbicides, greenhouse (Tolerance Factor); type: in vivo, Arabidopsis thaliana
[13] = tested on: transgenic Arabidopsis thaliana, transgene SEQ ID NO 120; test: Herbicide injury evaluation of Arabidopsis plants, greenhouse; type: in vivo; conditions: Table 4, scale 0-100
[14] = tested on: Arabidopsis plants, construct hemF_tpsAMATU_PPO2 (SEQ ID NO 116); test: Tolerance of transgenic T1 Arabidopsis plants to herbicides, greenhouse (Tolerance Factor); type: in vivo, Arabidopsis thaliana
[15] = tested on: Arabidopsis plants, construct RHOMA_PPO_F420V_tpFNR (SEQ ID NO 124); test: as above; type: in vivo, Arabidopsis thaliana
[16] = tested on: transgenic Arabidopsis thaliana, transgene SEQ ID NO 118; test: Herbicide injury evaluation of Arabidopsis plants, greenhouse; type: in vivo; conditions: scale 0-100
[17] = tested on: Wildtype/non-transgenic Arabidopsis thaliana; test: as above; type: in vivo; conditions: scale 0-100
[18] = tested on: Arabidopsis plants, construct RHOMA_PPO_wt_tpFNR (SEQ ID NO 123); test: Tolerance of transgenic T1 Arabidopsis plants to herbicides, greenhouse (Tolerance Factor); type: in vivo, Arabidopsis thaliana

C#CCN1C(=O)C(F)(F)Oc2cc(F)c(-n3c(=O)n(C)c(=S)n(C)c3=O)cc21 [Trifludimoxazine, 1,5-dimethyl-6-thioxo-3-(2,2,7-trifluoro-3-oxo-4-(prop-2-ynyl)-3,4-dihydro-2H-benzo[b][1,4]oxazin-6-yl)-1,3,5-triazinane-2,4-dione]
Tolerance Factor [1]: 1
Tolerance Factor [2]: 1
Tolerance Factor [3]: 1
Tolerance Factor [4]: 4433
Herbicide injury evaluation 14 days after herbicide treatment ([5]; SEQ ID NO 121 G, 25 g ai/ha + 1% MSO): 100
Herbicide injury evaluation 14 days after herbicide treatment ([5]; SEQ ID NO 121 G, 75 g ai/ha + 1% MSO): 100
Herbicide injury evaluation 14 days after herbicide treatment ([5]; SEQ ID NO 121 G, 150 g ai/ha + 1% MSO): 100
Herbicide injury evaluation 14 days after herbicide treatment ([5]; SEQ ID NO 121 H, 25 g ai/ha + 1% MSO): 100
Herbicide injury evaluation 14 days after herbicide treatment ([5]; SEQ ID NO 121 H, 75 g ai/ha + 1% MSO): 100
Herbicide injury evaluation 14 days after herbicide treatment ([5]; SEQ ID NO 121 H, 150 g ai/ha + 1% MSO): 100
Tolerance Factor [6]: 9167
Herbicide injury evaluation 14 days after herbicide treatment ([7]; SEQ ID NO 128 D, 25 g ai/ha + 1% MSO): 85
Herbicide injury evaluation 14 days after herbicide treatment ([7]; SEQ ID NO 128 D, 75 g ai/ha + 1% MSO): 93
Herbicide injury evaluation 14 days after herbicide treatment ([7]; SEQ ID NO 128 D, 150 g ai/ha + 1% MSO): 93
Herbicide injury evaluation 14 days after herbicide treatment ([7]; SEQ ID NO 128 E, 25 g ai/ha + 1% MSO): 85
Herbicide injury evaluation 14 days after herbicide treatment ([7]; SEQ ID NO 128 E, 75 g ai/ha + 1% MSO): 95
Herbicide injury evaluation 14 days after herbicide treatment ([7]; SEQ ID NO 128 E, 150 g ai/ha + 1% MSO): 97
Tolerance Factor [8]: 1
Tolerance Factor [9]: 1500
Herbicide injury evaluation 14 days after herbicide treatment ([10]; SEQ ID NO 119 A, 25 g ai/ha + 1% MSO): 100
Herbicide injury evaluation 14 days after herbicide treatment ([10]; SEQ ID NO 119 A, 75 g ai/ha + 1% MSO): 100
Herbicide injury evaluation 14 days after herbicide treatment ([10]; SEQ ID NO 119 A, 150 g ai/ha + 1% MSO): 100
Herbicide injury evaluation 14 days after herbicide treatment ([10]; SEQ ID NO 119 B, 25 g ai/ha + 1% MSO): 100
Herbicide injury evaluation 14 days after herbicide treatment ([10]; SEQ ID NO 119 B, 75 g ai/ha + 1% MSO): 100
Herbicide injury evaluation 14 days after herbicide treatment ([10]; SEQ ID NO 119 B, 150 g ai/ha + 1% MSO): 100
Herbicide injury evaluation 14 days after herbicide treatment ([11]; SEQ ID NO 117 C, 25 g ai/ha + 1% MSO): 92
Herbicide injury evaluation 14 days after herbicide treatment ([11]; SEQ ID NO 117 C, 75 g ai/ha + 1% MSO): 93
Herbicide injury evaluation 14 days after herbicide treatment ([11]; SEQ ID NO 117 C, 150 g ai/ha + 1% MSO): 97
Herbicide injury evaluation 14 days after herbicide treatment ([11]; SEQ ID NO 117 I, 25 g ai/ha + 1% MSO): 90
Herbicide injury evaluation 14 days after herbicide treatment ([11]; SEQ ID NO 117 I, 75 g ai/ha + 1% MSO): 99
Herbicide injury evaluation 14 days after herbicide treatment ([11]; SEQ ID NO 117 I, 150 g ai/ha + 1% MSO): 98
Tolerance Factor [12]: 9
Herbicide injury evaluation 14 days after herbicide treatment ([13]; SEQ ID NO 120 J, 25 g ai/ha + 1% MSO): 80
Herbicide injury evaluation 14 days after herbicide treatment ([13]; SEQ ID NO 120 J, 75 g ai/ha + 1% MSO): 94
Herbicide injury evaluation 14 days after herbicide treatment ([13]; SEQ ID NO 120 J, 150 g ai/ha + 1% MSO): 98
Herbicide injury evaluation 14 days after herbicide treatment ([13]; SEQ ID NO 120 M, 25 g ai/ha + 1% MSO): 94
Herbicide injury evaluation 14 days after herbicide treatment ([13]; SEQ ID NO 120 M, 75 g ai/ha + 1% MSO): 98
Herbicide injury evaluation 14 days after herbicide treatment ([13]; SEQ ID NO 120 M, 150 g ai/ha + 1% MSO): 93
Tolerance Factor [14]: 1
Tolerance Factor [15]: 1
Herbicide injury evaluation 14 days after herbicide treatment ([16]; Table 3, SEQ ID NO 118 Q, 25 g ai/ha + 1% MSO): 45
Herbicide injury evaluation 14 days after herbicide treatment ([16]; Table 3, SEQ ID NO 118 Q, 75 g ai/ha + 1% MSO): 50
Herbicide injury evaluation 14 days after herbicide treatment ([16]; Table 3, SEQ ID NO 118 Q, 150 g ai/ha + 1% MSO): 58
Herbicide injury evaluation 14 days after herbicide treatment ([16]; Table 3, SEQ ID NO 118 R, 25 g ai/ha + 1% MSO): 20
Herbicide injury evaluation 14 days after herbicide treatment ([16]; Table 3, SEQ ID NO 118 R, 75 g ai/ha + 1% MSO): 23
Herbicide injury evaluation 14 days after herbicide treatment ([16]; Table 3, SEQ ID NO 118 R, 150 g ai/ha + 1% MSO): 10
Herbicide injury evaluation 14 days after herbicide treatment ([16]; Table 4, SEQ ID NO 118 Q, 25 g ai/ha + 1% MSO): 60
Herbicide injury evaluation 14 days after herbicide treatment ([16]; Table 4, SEQ ID NO 118 Q, 75 g ai/ha + 1% MSO): 63
Herbicide injury evaluation 14 days after herbicide treatment ([16]; Table 4, SEQ ID NO 118 Q, 150 g ai/ha + 1% MSO): 65
Herbicide injury evaluation 14 days after herbicide treatment ([16]; Table 4, SEQ ID NO 118 R, 25 g ai/ha + 1% MSO): 18
Herbicide injury evaluation 14 days after herbicide treatment ([16]; Table 4, SEQ ID NO 118 R, 75 g ai/ha + 1% MSO): 28
Herbicide injury evaluation 14 days after herbicide treatment ([16]; Table 4, SEQ ID NO 118 R, 150 g ai/ha + 1% MSO): 50
Herbicide injury evaluation 14 days after herbicide treatment ([17]; Table 3, 25 g ai/ha + 1% MSO): 100
Herbicide injury evaluation 14 days after herbicide treatment ([17]; Table 3, 75 g ai/ha + 1% MSO): 100
Herbicide injury evaluation 14 days after herbicide treatment ([17]; Table 3, 150 g ai/ha + 1% MSO): 100
Herbicide injury evaluation 14 days after herbicide treatment ([17]; Table 4, 25 g ai/ha + 1% MSO): 100
Herbicide injury evaluation 14 days after herbicide treatment ([17]; Table 4, 75 g ai/ha + 1% MSO): 100
Herbicide injury evaluation 14 days after herbicide treatment ([17]; Table 4, 150 g ai/ha + 1% MSO): 100
Tolerance Factor [18]: 1

— patent publication US11959086B2, “Dual transit peptides for targeting polypeptides” (BASF AGRO B.V., priority 2016, dated 2024)
